Data set [1] concerns Acinetobacter baumannii 872842. It counts as cell-based. Conditions: 872842. An outline of the steps:
(§1)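 Cation-adjusted MH-II broth, 0.002% polysorbate 80, inoculum near 10^6 CFU/mL. MIC read visually after 18-20 h, 35° C; units μg/mL.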

Data set [2] has as its system Acinetobacter baumannii DSM 30008. The format is cell-based. Conditions: DSM 30008. An outline of the steps:
as §1

The subject of data set [3] is Enterobacter cloacae 848840. The format is cell-based. Conditions: 848840. An outline of the steps:
as §1

For data set [4], the system named is Escherichia coli 926415. The format is cell-based. Conditions: 926415. In a few lines:
as §1

For data set [5], the system named is Escherichia coli ATCC 25922. It counts as cell-based. The settings on record: ATCC 25922. An outline of the steps: as §1
The subject of data set [6] is Klebsiella pneumoniae 968733. It counts as cell-based. Conditions: 968733. An outline of the steps:
as §1

Data set [7] relates to Klebsiella pneumoniae SSI #3010. The format is cell-based. Conditions: SSI #3010. An outline of the steps:
as §1

Data set [8] has as its system Pseudomonas aeruginosa ATCC 27853. It counts as cell-based. Conditions: ATCC 27853. In a few lines:
as §1

In data set [9] the test system is human red blood cells (hRBC). Put plainly: Hemolysis. The format is cell-based. The settings on record: red cells of human, 1 h, 200. An outline of the steps:
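Percent lysis of human red cells was derived from OD540 of the supernatant, referenced to 2% Triton X-100, after a 1 h, 37° C incubation of 20% (v/v) cells with 200 μg/mL peptide.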

The test system of data set [10] is male ICR mice. Nature of the data set: Tolerability in a mouse model (Maximum Tolerated Dose assay). The format is in vivo. Conditions: groups of 3. The protocol:
The tolerability of the peptides was tested in a mouse model at Pharmacology Discovery Services Taiwan Ltd, Taipei, Taiwan. The peptides were administered subcutaneously (s.c.) at 30 mg/kg or 40 mg/kg, respectively; twice at a 12-hr interval, for assessment of possible adverse effects in the Maximum Tolerated Dose (MTD) assay in male ICR (Institute of Cancer Research) mice. The peptides were dissolved in 0.9% NaCl at the concentrations either of 6 or 8 mg/mL, respectively, based on the free base molecular weight. The pH values of dosing solutions were adjusted to 6.5-7.6 before s.c. administration. A dosing volume at 5 mL/kg and a concentration of 6 or 8 mg/mL, respectively, was applied. The fresh prepared stock solution were stored at 4° C. during the study. Male ICR mice weighing 23±3 g were provided by BioLasco Taiwan (under Charles River Laboratories Licensee). Animals were acclimated for 3 days prior to use and were confirmed to be in good health. The peptides were administered s.c. at 30 mg/kg or 40 mg/kg, respectively, twice at a 12-hr interval, to groups of 3 ICR male mice and observed for the presence of acute toxic symptoms (mortality, convulsions, tremors, muscle relaxation, sedation, etc.) and autonomic effects (diarrhea, salivation, lacrimation, vasodilation, piloerection, etc.) during the first 30 min. The peptides were administered again at a 12-hr (two total doses) interval, following the first dose. The animals were then observed again for the presence of acute toxic symptoms and autonomic effects during the first 30 min.

The mark [11] stands for this setting: 2 × 40 mg/kg s.c. at a 12-hr interval.
The mark [12] stands for this setting: 2 × 30 mg/kg s.c. at a 12-hr interval.

One may read the MIC as the least concentration at which growth counts as inhibited. A low value points to inhibition by little substance.

Values after ≈ are worked out from the molar mass of the structure shown. Where a SMILES comes first, the peptide text is derived from it. Bridges are numbered along the chain shown (N, C = ends). Roman numbers before positions name the chains, in order. [ ]: non-standard residue; d: D form. NMeV = CN[C@H](C(=O)O)C(C)C; dDab = NCC[C@@H](N)C(=O)O; hSer = N[C@@H](CCO)C(=O)O; Dab = NCC[C@H](N)C(=O)O; Dap = NC[C@H](N)C(=O)O

As to `CC(=O)N[C@H](C(=O)N[C@H]1CSSC[C@@H](C(=O)N[C@@H](CO)C(N)=O)NC(=O)[C@H](C(C)C)NC(=O)CNC(=O)[C@H](Cc2c[nH]c3ccccc23)NC(=O)[C@H](CO)NC(=O)[C@@H](CCN)NC(=O)[C@H](CCC(=O)N[C@@H](CCN)C(=O)N[C@H](C(=O)N[C@@H](CN)C(=O)N[C@H]2CCNC(=O)[C@H]([C@@H](C)O)NC(=O)[C@H](CCN)NC(=O)[C@H](CCN)NC(=O)[C@H](CC(C)C)NC(=O)[C@@H](CC(C)C)NC(=O)[C@H](CCN)NC2=O)[C@@H](C)O)NC(=O)[C@H](CCN)NC(=O)[C@H](Cc2ccc(O)cc2)NC1=O)C(C)C` [Ex. 335] (I: Ac-VCY[Dab]E[dDab]SWGVCS-NH2 / II: [Dab]T[Dap][Dab][Dab][dL]L[Dab][Dab]T; disulfide I:2-I:11; amide I:5-II:N; lactam II:4-II:C), the MIC in data set [1] was 0.25 µg/mL (≈ 0.106 µM); in [3], 0.25 µg/mL (≈ 0.106 µM); in data set [4], 0.25 µg/mL (≈ 0.106 µM); in data set [6], 0.5 µg/mL (≈ 0.211 µM). Besides, the “Acinetobacter baumannii DSM 30008 MIC” value in data set [2] came out at 0.0625 µg/mL. In addition, the “Escherichia coli ATCC 25922 MIC” value in data set [5] is 0.0625 µg/mL. In addition, in [7], the “Klebsiella pneumoniae SSI #3010 MIC” value was 0.0625 µg/mL. Also, the “Pseudomonas aeruginosa ATCC 27853 MIC” value in data set [8] was 0.125 µg/mL. Besides, in data set [9], the “Hemolysis at 200 μg/mL” value is given as under 1%. In addition, in [10] (setting [11]), the Mortality and dose was 0/3 died at 2 × 40 mg/kg.

With `CC(=O)N[C@H](C(=O)N[C@H]1CSSC[C@@H](C(=O)N[C@@H](CO)C(N)=O)NC(=O)[C@H](C(C)C)NC(=O)[C@H](CO)NC(=O)[C@H](Cc2c[nH]c3ccccc23)NC(=O)[C@H](CCC(=O)N[C@@H](CCN)C(=O)N[C@H](C(=O)N[C@@H](CN)C(=O)N[C@H]2CCNC(=O)[C@H]([C@@H](C)O)NC(=O)[C@H](CCN)NC(=O)[C@H](CCN)NC(=O)[C@H](CC(C)C)NC(=O)[C@@H](CC(C)C)NC(=O)[C@H](CCN)NC2=O)[C@@H](C)O)NC(=O)[C@@H](CCN)NC(=O)[C@H]([C@@H](C)O)NC(=O)[C@H](CCN)NC(=O)[C@H](Cc2ccc(O)cc2)NC1=O)C(C)C` [Ex. 364] (I: Ac-VCY[Dab]T[dDab]EWSVCS-NH2 / II: [Dab]T[Dap][Dab][Dab][dL]L[Dab][Dab]T; disulfide I:2-I:11; amide I:7-II:N; lactam II:4-II:C), the MIC in data set [1] was determined as 0.125 µg/mL (≈ 0.0518 µM); in data set [3], 0.125 µg/mL (≈ 0.0518 µM); in data set [4] it was 0.25 µg/mL (≈ 0.104 µM); in [6], 0.125 µg/mL (≈ 0.0518 µM). For the same compound, the “Acinetobacter baumannii DSM 30008 MIC” value in data set [2] came out at 0.0625 µg/mL. In data set [5], the “Escherichia coli ATCC 25922 MIC” value is 0.0625 µg/mL. Further, the “Klebsiella pneumoniae SSI #3010 MIC” value in data set [7] was 0.0625 µg/mL. Also, the “Pseudomonas aeruginosa ATCC 27853 MIC” value in data set [8] was found to be 0.125 µg/mL. Also, the “Hemolysis at 200 μg/mL” value in [9] is on record as under 1%. Besides, the Mortality and dose in [10] (setting [11]) is recorded as 0/3 died at 2 × 40 mg/kg.

As for `CC(=O)N[C@H](C(=O)N[C@H]1CSSC[C@@H](C(=O)N[C@@H](CO)C(N)=O)NC(=O)[C@H](C(C)C)NC(=O)[C@H](CO)NC(=O)[C@H](Cc2c[nH]c3ccccc23)NC(=O)[C@H](CCO)NC(=O)[C@@H](CCN)NC(=O)[C@H](CCC(=O)N[C@@H](CCN)C(=O)N[C@H](C(=O)N[C@@H](CN)C(=O)N[C@H]2CCNC(=O)[C@H]([C@@H](C)O)NC(=O)[C@H](CCN)NC(=O)[C@H](CCN)NC(=O)[C@H]([C@@H](C)O)NC(=O)[C@@H](CC(C)C)NC(=O)[C@H](CCN)NC2=O)[C@@H](C)O)NC(=O)[C@H](CCN)NC(=O)[C@H](Cc2ccc(O)cc2)NC1=O)C(C)C` [Ex. 343] (I: Ac-VCY[Dab]E[dDab][hSer]WSVCS-NH2 / II: [Dab]T[Dap][Dab][Dab][dL]T[Dab][Dab]T; disulfide I:2-I:11; amide I:5-II:N; lactam II:4-II:C), the MIC in [1] came to 0.25 µg/mL (≈ 0.104 µM); in data set [3] it was 0.125 µg/mL (≈ 0.0521 µM); in [4], 0.25 µg/mL (≈ 0.104 µM); in [6], 0.5 µg/mL (≈ 0.208 µM). For the same compound, the “Acinetobacter baumannii DSM 30008 MIC” value in [2] worked out at 0.0625 µg/mL. Besides, the “Escherichia coli ATCC 25922 MIC” value in [5] came to 0.03125 µg/mL. Moreover, in data set [7], the “Klebsiella pneumoniae SSI #3010 MIC” value worked out at 0.0625 µg/mL. For the same compound, the “Pseudomonas aeruginosa ATCC 27853 MIC” value in [8] was found to be 0.125 µg/mL. Further, the “Hemolysis at 200 μg/mL” value in data set [9] is given as under 1%. The Mortality and dose in [10] (setting [11]) is 0/3 died at 2 × 40 mg/kg.

Take `CN[C@H](C(=O)N[C@H]1CSSC[C@@H](C(=O)N[C@@H](CO)C(=O)O)NC(=O)[C@H](C(C)C)NC(=O)[C@H](CO)NC(=O)[C@H](Cc2c[nH]c3ccccc23)NC(=O)[C@H](CCO)NC(=O)[C@@H](CCN)NC(=O)[C@H](CCC(=O)N[C@@H](CCN)C(=O)N[C@H](C(=O)N[C@@H](CCN)C(=O)N[C@H]2CCNC(=O)[C@H]([C@@H](C)O)NC(=O)[C@H](CCN)NC(=O)[C@H](CCN)NC(=O)[C@H](CC(C)C)NC(=O)[C@@H](CC(C)C)NC(=O)[C@H](CCN)NC2=O)[C@@H](C)O)NC(=O)[C@H](CCN)NC(=O)[C@H](Cc2ccc(O)cc2)NC1=O)C(C)C` [Ex. 42] (I: H-[NMeV]CY[Dab]E[dDab][hSer]WSVCS-OH / II: [Dab]T[Dab][Dab][Dab][dL]L[Dab][Dab]T; disulfide I:2-I:11; amide I:5-II:N; lactam II:4-II:C; C-terminus assumed): the MIC is 1 µg/mL (≈ 0.417 µM) in data set [1]; 0.5 µg/mL (≈ 0.208 µM) in data set [2]; 4 µg/mL (≈ 1.67 µM) in data set [3]; 0.5 µg/mL (≈ 0.208 µM) in data set [4]; 0.125 µg/mL (≈ 0.0521 µM) in data set [5]; 2 µg/mL (≈ 0.833 µM) in data set [6]. The MIC in data set [7] and in data set [8] was 0.25 µg/mL (≈ 0.104 µM) in each case. The “Hemolysis at 200 μg/mL” value in [9] is under 1%. Also, the Mortality and dose in [10] (setting [12]) is recorded as 0/3 died at 2 × 30 mg/kg.

Regarding `CC(=O)N[C@H](C(=O)N[C@H]1CSSC[C@@H](C(=O)N[C@@H](CO)C(N)=O)NC(=O)[C@H](C(C)C)NC(=O)[C@H](CCC(=O)O)NC(=O)[C@H](Cc2c[nH]c3ccccc23)NC(=O)[C@H](CO)NC(=O)[C@@H](CCN)NC(=O)[C@H](CCC(=O)N[C@@H](CCN)C(=O)N[C@H](C(=O)N[C@@H](CN)C(=O)N[C@H]2CCNC(=O)[C@H]([C@@H](C)O)NC(=O)[C@H](CCN)NC(=O)[C@H](CCN)NC(=O)[C@H](CC(C)C)NC(=O)[C@@H](CC(C)C)NC(=O)[C@H](CCN)NC2=O)[C@@H](C)O)NC(=O)[C@H](CCN)NC(=O)[C@H](Cc2ccc(O)cc2)NC1=O)C(C)C` [Ex. 150] (I: Ac-VCY[Dab]E[dDab]SWEVCS-NH2 / II: [Dab]T[Dap][Dab][Dab][dL]L[Dab][Dab]T; disulfide I:2-I:11; amide I:5-II:N; lactam II:4-II:C), the MIC in [1] amounted to 0.125 µg/mL (≈ 0.0512 µM); in [2], 0.0625 µg/mL (≈ 0.0256 µM); in data set [3], 0.125 µg/mL (≈ 0.0512 µM); in [4], 0.25 µg/mL (≈ 0.102 µM); in data set [5], 0.03125 µg/mL (≈ 0.0128 µM); in data set [6], 0.5 µg/mL (≈ 0.205 µM). Also, the minimum inhibitory concentration (MIC) in [7] and in data set [8] was 0.125 µg/mL (≈ 0.0512 µM) each time. Also, the “Hemolysis at 200 μg/mL” value in data set [9] is recorded as under 1%. Further, in data set [10] (setting [12]), the Mortality and dose is reported as 0/3 died at 2 × 30 mg/kg.
